In patent publication US20130267757A1, “ANTH[…] USE AS RADIOS[…] CANCER TREATMENT” (Sensit Science Ltd., priority 2010, published 2013):
Entries after “also recorded” stand apart in the source; their conditions may differ.

Tests used:
[1] = system: C6 Rat-Glioma grown in monolayer; assay: AlamarBlue cell proliferation assay after radiosensitizer and irradiation, C6 monolayer; type: cell-based; details: 0.1 μM
Experimental: The following cell lines were originally obtained from the American Type Culture collection (ATTC):
(§1) Rat glioma cell line: C6 (ATCC number: CCL107)
(§2) Human colorectal cancer cell line: HT-29 (ATCC number: HTB-38). All cells were cultured routinely in DMEM supplemented with 10% FCS.
(§3) Three hypericin derivatives were used in the assay, including hypericin tetrasulfonic acid (HyTS); Tetrabromo hypericin (TBrHy); and Hexamethyl hypericin (HxMeHy). In addition, as control, hypericin and/or Photofrin II as well as cells exposed only to radiation, i.e. without a radiosensitizing agent.
(§4) The hypericin, hypericin derivatives and photofrin II were used in doses ranging from 0.1 μM up to 2 μM. All compounds were dissolved in DMSO, and were protected from light.
(§5) In all cases, control and tumor cells were exposed to ionizing radiation (Siemens X-ray device with 250 kV or with LINAC) at 24 h after the incubation with Hyperecin, Photofrin II or Hypericin derivatives indicated below. […] The response of the tumor to the radiation treatment was evaluated by determining growth delay using the described cell proliferation assay.
(§6) Cell proliferation assay using AlamarBlue
(§7) Unless indicated otherwise, the tumor cell lines were cultured at a starting density of 1×10^5 cells/mL in DMEM and 10% FCS. […] Absorbance was measured at 570 nm and 600 nm using a micro-titer plate reader. […]

[2] = system: C6 Rat-Glioma grown as cancer stem cells spheres; assay: AlamarBlue cell proliferation assay after radiosensitizer and irradiation, C6 cancer stem cell spheres; type: cell-based; details: 0.1 μM; irradiation 10 Gy; 5 days post irradiation; FIG. 3B, P<0.049
Experimental: as §1
To obtain tumor stem cells, cells were cultured in stem cell conditioned media. Briefly, breast and glioma cancer cells were cultured in serum-free DMEM media containing […] bovine insulin, 100 μg/ml human transferrin, 100 μg/ml BSA, 60 ng/ml progesterone, 16 μg/ml putrescine, 40 μg/ml sodium selenite, 63 μg/ml N-acetylcysteine, 5 μM forskolin, 50 units/ml penicillin, and 50 μg/ml streptomycin, 10 ng/ml bFGF, and 10 ng/ml PDGF. In all experiments, cells were maintained in 100 mm or 96 well plate culture dishes at 37° C. in a humidified […] and were protected from light.
Three hypericin derivatives were used in the assay, including hypericin tetrasulfonic acid (HyTS); Tetrabromo hypericin (TBrHy); and Hexamethyl hypericin (HxMeHy). […]
as §5, with “assay. […]” for “assay.”
as §7

[3] = system: Dayo-human Glioma tumor; assay: AlamarBlue cell proliferation assay after radiosensitizer and irradiation, Dayo; type: cell-based; details: 0.1 μM; FIG. 4B, P<0.01
Experimental: Human glioma cell lines: Daoy (ATCC number: HTB-186) and
as §2, §3, §4
(§8) In all cases, control and tumor cells were exposed to ionizing radiation (Siemens X-ray device with 250 kV or with LINAC) at 24 h after the incubation with Hyperecin, Photofrin II or Hypericin derivatives indicated below. The total delivered radiation dose was a 10 Gy, provided in a single irradiation session on the second day of culture. The response of the tumor to the radiation treatment was evaluated by determining growth delay using the described cell proliferation assay.
as §6, §7

[4] = system: U87 human glioma tumors; details: 10 mg/kg + 10 Gy radiation; CB.17 SCID mice; FIG. 8A
Experimental: U87 human glioma cells at a concentration of 5×10^6 were implanted into the flank of eight to ten weeks old CB.17 SCID mice (n=4-5 mice per group).
Treatment was initiated when the tumors reached a size of 100-150 mm^3, and included the following treatment groups:
Specifically, mice were injected with the radiosensitizing agent, and immediately placed in the dark. Radiation was initiated two hours after radiosensitizing administration. Mice were kept in the dark for the following 72 hours, in order to minimize the effect of light on the traces of the radiosensitizing agents. Tumor volume was monitored prior to treatment and thereafter twice weekly.

[5] = Treatment toxicity: body weight and overall behaviour (Example 4A); type: in vivo, nude mice; details: 10 mg/kg; for tolerability of treatment: alone or in combination with radiation, nude mice; for change in mice body weight and mice behaviour: measured twice weekly
Experimental: (§9) Mice injected with 5% DMSO vehicle served as the control untreated group. Immediately after the injections, the mice were placed in the dark. For each group of radiosensitizing agent treated mice, half of the treated mice were then treated with a 10 Gy dose of radiation, initiated two hours after the administration of the radiosensitizing agents.
Treatment toxicity was evaluated using two parameters, (i) measuring mice's body weight and (ii) monitoring overall mice behaviour, both parameters were measured twice weekly.

[6] = system: MD-MB-231-human breast carcinoma; assay: AlamarBlue cell proliferation assay after radiosensitizer and irradiation, MDA-MB-231; type: cell-based; details: 1 μM; FIG. 4C, P<0.05
Experimental: (§10) Human breast carcinoma: MCF-7 (ATCC number: HTB-22); MDA-MB-231 (ATCC number: HTB-26)
as §2, §3, §4
as §8, with “assay. […]” for “assay.”
as §7

[7] = system: U87 Tumors; details: during the 2 hours prior to radiation
Experimental: U87 Tumors were implanted subcutaneously in nude mice and then examined under a UV light lamp and the colour intensity was visualized.
(§11) These studies were aimed at assessing the localization of radiosensitizing agents and were conducted by two complementary techniques; the first in implanted U87 human glioma tumors using UV lamp and the second in extracted U87 tumors using Flow Cytometry techniques.

[8] = system: HT29-colon cancer grown in monolayer; assay: Example 2B AlamarBlue proliferation, HT29 linear cells; type: cell-based, human; details: 0.1-2 μM; single dose 10 Gy; FIG. 6A
Experimental: (§12) Linear cell (Lin) HT29 and MCF7 human breast carcinoma, were obtained from the American Type Culture Collection (ATCC).
(§13) Cells were cultured in Dulbecco's Modified Eagle Medium (DMEM), supplemented with 10% fetal calf serum (FCS) and antibiotics.
(§14) Three photosensitizing agents were used, Hypericin (Hy), Tetrabromo hypericin (TBrHy), and hypericin tetrasulfonic acid (HyTS) in the following concentrations: 0.1 μM, 1 μM and 2 μM. Drugs were protected from light for all time. Control cells were treated with 0.1% DMSO (vehicle).
(§15) Linear and CSC were exposed to 3 Gy irradiation daily for four consecutive days or to a single dose of 10 Gy radiation. Radiation was initiated one day after treatment with the hypericin or hypericin derivatives.
(§16) Linear and CSCs were cultured in a 96 plate in triplicates. Each cell line was treated with the three radiosensitizing agents in the indicated doses. In addition culture cells were exposure to radiation. A day before the irradiation, the radiosensitizing agents were added to the culture. Cells were allowed to grow over a period of 5 days using the method of AlamarBlue™ reduction assay. 10% Alamar Blue solution added to each well. Cells viability was measured using Eliza Reader at two different wavelengths: 570 nm and 600 nm, and the appropriate equation was calculated to reflect cell viability.

[9] = system: HT29-human colon carcinoma; assay: AlamarBlue cell proliferation assay after radiosensitizer and irradiation, HT29; type: cell-based; details: FIG. 4E, P<0.05
Experimental: as §2, §3, §4, §8, §6, §7

[10] = system: PANC01 human pancreatic adenocarcinoma cells; assay: PANC01 human pancreatic adenocarcinoma tumors in CB.17 SCID mice, tumor volume (Example 4C); type: in vivo; details: 10 mg/kg + 10 Gy radiation; for tumor volume of PANC1 pancreatic tumors, agent with radiation: CB.17 SCID mice, FIG. 8B
Experimental: Mice were injected with the radiosensitizing agent, and immediately after were placed in the dark. Radiation was conducted 2 hours after radiosensitizing administration. […] Tumor volume was measured prior to the treatment and thereafter twice weekly.

[11] = system: MCF-7 human breast carcinoma grown as monolayer; assay: Example 2B AlamarBlue proliferation, MCF7 linear cells; type: cell-based; details: 0.1-2 μM; single dose 10 Gy; FIG. 6C
Experimental: as §12, §13, §14, §15, §16

[12] = brain sections of treated mice, fluorescence 550-650 nm
[13] = system: MCF-7 human breast carcinoma grown as cancer stem cells spheres; assay: Example 2B AlamarBlue proliferation, MCF7 cancer stem cells; type: cell-based; details: for inhibiting proliferation of MCF7 human breast cancer cells grown as stem cells: 0.1-2 μM, single dose 10 Gy, FIG. 6D; for effect in MCF7 cancer stem cells compared with monolayer: FIGS. 6C and 6D
Experimental: as §12
(§17) Enrichment of the cancer stem cells (CSCs) population was done by incubating linear cells in a DMEM/F-12 (HAM) 1:1 medium supplement with Insulin-Transferin-Soldium Selenite, and growth factors specific for each cell line. Cells considered enriched for CSCs after 10-15 days in CSCs medium.
as §14, §15, §16

[14] = system: MCF-7 human breast carcinoma; assay: AlamarBlue cell proliferation assay after radiosensitizer and irradiation, MCF-7 monolayer; type: cell-based; details: 1 μM
Experimental: as §10, §2, §3, §4
as §8, with “assay. […]” for “assay.”
as §7

[15] = system: U87 Tumors; details: wavelength of 665 nm; with or without radiation
Experimental: U87 Tumors were resected when tumors reached end-point (1500 mm^3), minced, and digested in 4 mg/ml collagenase III, 2 mg/ml hyaluronidase, and 2 mg/ml collagenase IV in serum free DMEM, for 20 min, at 37° C. Cells were then filtered through a 40 μm sieve, and washed twice with PBS to obtain single U87 cell suspension.
The single U87 tumor cell suspensions were then acquired on Cyan ADP flow cytometer (Beckman Coulter) and analyzed with Summit (Beckman Coulter) software.
The FL8 channel, (wavelength of 655/20 nm) was used to detect differences between positive and negative cells. From each sample, at least 50,000 cells were acquired.
as §11

[16] = system: HT29-colon cancer grown as cancer stem cells spheres; assay: Example 2B AlamarBlue proliferation, HT29 cancer stem cells; type: cell-based, human; details: 0.1-2 μM; single dose 10 Gy; FIG. 6B; compared with monolayer
Experimental: as §12, §17, §14, §15
as §16, with “Cells were allowed to grow over a period of 5 days using the method of AlamarBlue™ reduction assay. 10% Alamar Blue solution added to each well.” left out

[17] = system: U87 human glioma tumors; assay: U87 human glioma tumors implanted in nude mice, tumor growth (Example 4A); type: in vivo; details: 10 mg/kg + 10 Gy radiation
Experimental: as §9
Overall, eight groups of treatment were evaluated as follows:
Tumor growth was evaluated by measuring the tumor's volume twice weekly.

SMILES | tolerability of treatment [5] | change in mice body weight and mice behaviour [5] | colour of tumors under UV light [7] | tumor volume of PANC1 pancreatic tumors, agent with radiation [10] | inhibiting proliferation of MCF7 human breast cancer cells grown as monolayer [11] | BBB penetration [12] | inhibiting proliferation of MCF7 human breast cancer cells grown as stem cells [13] | effect in MCF7 cancer stem cells compared with monolayer [13] | fluorescent signal of tumor cells by flow cytometry [15] | other results
COc1cc(C)c2c3c(C)cc(OC)c4c(=O)c5c(OC)cc(OC)c6c7c(OC)cc(OC)c8c(=O)c1c2c(c87)c(c43)c56 [HxMeHy, Hexamethyl hypericin] | – | – | – | – | – | – | – | – | – | radiosensitizing effect on C6 brain cancer (proliferation on day 5) ([1]; FIG. 4A): effective radiosensitizing agent; proliferation of C6 glioma cells in monolayer (AlamarBlue, fold increase) ([1]; irradiation 10 Gy, 5 days post irradiation, FIG. 3A, P<0.05): statistically inhibited the proliferation; proliferation of C6 glioma cells grown as CSCs (AlamarBlue, fold increase) [2]: statistically inhibited the proliferation; radiosensitizing effect on Dayo tumor (proliferation on day 5) [3]: effective radiosensitizing agent
Cc1c(S(=O)(=O)O)c(O)c2c(=O)c3c(O)c(S(=O)(=O)O)c(O)c4c5c(O)c(S(=O)(=O)O)c(O)c6c(=O)c7c(O)c(S(=O)(=O)O)c(C)c8c1c2c(c34)c(c78)c65 [HyTS, hypericin tetrasulfonic acid] | well tolerated | no significant change | colored in red | anti-tumor activity | effective in inhibiting the proliferation | does not penetrate the BBB | effective in inhibiting the proliferation | more pronounced | fluorescent signal was detected | tumor volume of U87 tumors, agent with radiation [4]: anti-tumor activity; radiosensitizing effect on breast cancer MD-MB-231 (proliferation on day 5) [6]: statistically significantly effective; radiosensitizing HT-29 colon cancer cells (monolayer) [8]: effective in radiosensitizing; radiosensitizing effect on colon cancer HT29 (proliferation on day 5) ([9]; 1 μM): effective radiosensitizing agents; anti-tumor activity in PANC1 pancreatic tumors compared with U87 [10]: somewhat better activity; radiosensitizing effect on breast cancer MCF-7 (proliferation on day 5) ([14]; FIG. 4D, P<0.01): statistically significantly effective; proliferation of MCF-7 breast cancer cells grown as monolayer (AlamarBlue, fold increase) ([14]; irradiation 10 Gy, 5 days post radiation, FIG. 3C, P<0.03): statistically inhibited the proliferation; sensitivity of HT-29 colon cancer stem cells to treatment [16]: more sensitive
Cc1c(Br)c(O)c2c(=O)c3c(O)c(Br)c(O)c4c5c(O)c(Br)c(O)c6c(=O)c7c(O)c(Br)c(C)c8c1c2c(c34)c(c78)c65 [TBrHy, Tetrabromo hypericin] | well tolerated | no significant change | colored in red | most potent radiosensitizing agent; also recorded: enhanced anti-tumor activity | effective in inhibiting the proliferation | penetrated the BBB | effective in inhibiting the proliferation | more pronounced | fluorescent signal was detected | tumor growth of U87 tumors, agent combined with radiotherapy ([17]; nude mice, FIG. 7): most effective radiosensitizing agent; also recorded: better anti-tumor activity; tumor removal in one mouse ([17]; one mouse, 4 days after treatment): completely removed; radiosensitizing effect on colon cancer HT29 (proliferation on day 5) ([9]; 0.1 μM): effective radiosensitizing agents
